This is an account of results in patent US12240867B2, “Arginase inhibitors and methods of use” (Merck Sharp & Dohme LLC, priority 2018, dated 2025).

Read-outs that look alike come from different tables or passages of the source.

One assay addresses T1, Arginase (Homo sapiens, UniProt P05089).
T1 sequence (P05089 1-322): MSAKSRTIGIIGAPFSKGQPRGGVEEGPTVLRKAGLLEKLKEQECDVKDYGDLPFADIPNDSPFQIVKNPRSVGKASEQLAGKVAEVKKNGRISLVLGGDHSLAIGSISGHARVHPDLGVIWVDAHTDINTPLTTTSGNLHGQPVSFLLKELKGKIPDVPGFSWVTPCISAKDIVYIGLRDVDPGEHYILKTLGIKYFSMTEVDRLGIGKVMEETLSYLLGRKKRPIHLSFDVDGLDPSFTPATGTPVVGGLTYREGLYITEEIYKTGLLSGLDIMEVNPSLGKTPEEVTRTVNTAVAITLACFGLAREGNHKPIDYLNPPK
Nature of the assay: Arginase Thioornithine Generating Assay (TOGA). It is filed as biochemical. The protocol:
Arginase Thioornithine Generating Assay (TOGA)
Compounds were serially diluted in ten 3-fold steps in DMSO starting from 10 mM DMSO stocks. Compound dilutions or DMSO alone were then dispensed from the dilution plate into a Greiner black 384-well assay plate (catalog #781086) using an Echo 555 acoustic liquid handler (Labcyte).
Arginase protein was recombinantly expressed in Escherichia coli. Purified protein was then diluted in assay buffer (50 mM Tris pH 7.5, 50 mM NaCl, 1 mM manganese chloride, 0.0500 bovine serum albumin to obtain a final Arginase concentration of 1.88 nM. Arginase solution ([…])) or buffer alone (20 μL) were dispensed to wells of the assay plate using a BioRAPTR liquid dispenser (Beckman Coulter). Assay plates containing compound and arginase enzyme were incubated at room temperature for 30 minutes. Afterwards, 5 µL of 2.5 mM thioarginine (Cayman Chemicals) in assay buffer were added to each well of the assay plate using a BioRAPTR liquid dispenser. Plates were incubated at room temperature for 60 minutes and reactions were quenched by addition of 15 μL of 200 uM 7-Diethylamine-3-(4-maleimidophenyl)-4-methyl coumarin (Sigma Chemical) in 70% ethanol. Plates were briefly shaken to mix and the fluorescence was measured in an Spectramax plate reader (Molecular Devices) with a 410 nm excitation wavelength and an 490 nm emission wavelength.
Potencies were calculated by […] least squares fit to the four parameter logistic IC50 equation.

Assay [1] concerns experimental autoimmune encephalomyelitis. Particulars: experimental autoimmune encephalomyelitis animal model; cited from earlier work.
In another assay the test system is live male rabbits. The note with it: cited from earlier work.
The test system of assay [2] is opossum internal anal sphincter muscle. The note with it: cited from earlier work.
The next assay relates to live female rabbits. The note with it: cited from earlier work.
The test system of a further assay is penile corpus cavernosum. The note with it: rabbit and human penile corpus cavernosum; cited from earlier work.
Assay [3] relates to corpus cavernosum of the diabetic man. Particulars: ex vivo; cited from earlier work.
In the next assay the test system is allergic asthma model. The note with it: nebulizer treatment of guinea pigs; cited from earlier work.
Where [4] appears, read: Top Dose 10000 nM, read-out: Percent Inhibition at Top Dose.
Where [5] appears, read: read-out: Percent Inhibition at Top Dose, Top Dose 10000 nM.

Consider `O=C(O)C12CNCC1(CCCB(O)O)CCN2` (racemic) [Example 6, racemic 3a-(3-boronopropyl)hexahydropyrrolo[3,4-b]pyrrole-6a(H)-carboxylic acid], for which the inhibition at 10 µM on Arginase (setting [4]) was 91.9%. Turning to `CN1CC2(CCCB(O)O)CCNC2(C(=O)O)C1` (racemic) [Example 7, Racemic 3a-(3-boronopropyl)-5-methylhexahydropyrrolo[3,4-b]pyrrole-6a(1H)-carboxylic acid], at Arginase (setting [4]), the inhibition at 10 µM was found to be 85.1%.

As for `N[C@@H](CCCCB(O)O)C(=O)O` [ABH, (S)-2-amino-6-boronohexanoic acid], the disease score entry in assay [1] is listed as “improves the disease score”. In addition, the erectile response result in the assay with live male rabbits was “enhances the erectile response”. Also, the “relaxation of internal anal sphincter muscle” value in assay [2] is recorded as “relax this muscle”. The “engorgement response in the genitalia” value in the assay on live female rabbits is “enhances the engorgement response”. For the same molecule, in the assay on penile corpus cavernosum, the “nitric oxide-dependent relaxation of corpus cavernosum tissue” value is recorded as “enhances the nitric oxide-dependent relaxation of this tissue”. For the same molecule, the nitric oxide biosynthesis result in assay [3] was “restores nitric oxide biosynthesis”. Besides, in the assay on allergic asthma model, the airway hyperresponsiveness result is “prevents airway hyperresponsiveness”. Take `C[C@H](N)C(=O)N1C[C@@]2(CCCB(O)O)CCN[C@@]2(C(=O)O)C1` [Example 1, (3aR,6aR)-5-(L-alanyl)-3a-(3-boronopropyl)hexahydropyrrolo[3,4-b]pyrrole-6a(H)-carboxylic acid]: the inhibition at 10 µM on Arginase (setting [5]) was found to be 99.7%. Turning to `NCC(=O)N1C[C@@]2(CCCB(O)O)CCN[C@@]2(C(=O)O)C1` [Example 3, (3aR,6aR)-3a-(3-boronopropyl)-5-glycylhexahydropyrrolo[3,4-b]pyrrole-6a(H)-carboxylic acid], the inhibition at 10 µM on Arginase (setting [5]) was determined as 89.5%. As to `O=C(O)[C@]12CNC[C@@]1(CCCB(O)O)CCN2` [Example 4, (3aR,6aR)-3a-(3-boronopropyl)hexahydropyrrolo[3,4-b]pyrrole-6a(1H)-carboxylic acid], the inhibition at 10 µM on Arginase (setting [4]) came to 98.2%. The half-inhibitory concentration (IC50) at Arginase (recombinant arginase 1.88 nM, thioarginine substrate, fluorescence readout) turned out to be 46 nM. On to `O=C(O)[C@@]12CNC[C@]1(CCCB(O)O)CCN2` [Example 5, (3aS,6aS)-3a-(3-boronopropyl)hexahydropyrrolo[3,4-b]pyrrole-6a(H)-carboxylic acid], for which, on Arginase (setting [4]), the inhibition at 10 µM amounted to 93%. `CC(C)[C@H](N)C(=O)N1C[C@@]2(CCCB(O)O)CCN[C@@]2(C(=O)O)C1` [Example 8, (3aR,6aR)-5-(L-valyl)-3a-(3-boronopropyl)hexahydropyrrolo[3,4-b]pyrrole-6a(H)-carboxylic acid]: on Arginase (setting [4]), the inhibition at 10 µM came to 99%.

`N[C@@H](CO)C(=O)N1C[C@@]2(CCCB(O)O)CCN[C@@]2(C(=O)O)C1` [Example 9, (3aR,6aR)-5-(L-seryl)-3a-(3-boronopropyl)hexahydropyrrolo[3,4-b]pyrrole-6a(1H)-carboxylic acid]: the inhibition at 10 µM at Arginase (setting [5]) was determined as 97.3%. As for `O=C([C@@H]1CCCN1)N1C[C@@]2(CCCB(O)O)CCN[C@@]2(C(=O)O)C1` [Example 10, (3aR,6aR)-5-(L-prolyl)-3a-(3-boronopropyl)hexahydropyrrolo[3,4-b]pyrrole-6a(1H)-carboxylic acid], the inhibition at 10 µM at Arginase (setting [5]) came out at 96.6%. Turning to `O=C(O)[C@]12CNC[C@@]1(CCCB(O)O)CN2` [Example 11, (1S,5R)-1-(3-boronopropyl)-3,6-diazabicyclo[3.2.0]heptane-5-carboxylic acid], the inhibition at 10 µM at Arginase (setting [4]) was 99.5%. For `NC[C@@H]1NC[C@]2(C(=O)O)NCC[C@]12CCCB(O)O` [Example 12, (3aR,4R,6aR)-4-(aminomethyl)-3a-(3-boronopropyl)hexahydropyrrolo[3,4-b]pyrrole-6a(1H)-carboxylic acid], the inhibition at 10 µM at Arginase (setting [5]) stood at 100%. In the case of `CSCC[C@H](N)C(=O)N1C[C@@]2(CCCB(O)O)CCN[C@@]2(C(=O)O)C1` [Example 13], the inhibition at 10 µM at Arginase (setting [4]) was determined as 102%. On to `CC(C)(C)[C@H](N)C(=O)N1C[C@@]2(CCCB(O)O)CCN[C@@]2(C(=O)O)C1` [Example 14], for which the inhibition at 10 µM on Arginase (setting [4]) is 102%. With `CC(C)C[C@H](N)C(=O)N1C[C@@]2(CCCB(O)O)CCN[C@@]2(C(=O)O)C1` [Example 15], at Arginase (setting [4]), the inhibition at 10 µM is 96.7%. As to `CC(C)(N)C(=O)N1C[C@@]2(CCCB(O)O)CCN[C@@]2(C(=O)O)C1` [Example 16], on Arginase (setting [4]), the inhibition at 10 µM turned out to be 97.3%. `COC[C@H](N)C(=O)N1C[C@@]2(CCCB(O)O)CCN[C@@]2(C(=O)O)C1` [Example 17]: at Arginase (setting [4]), the inhibition at 10 µM worked out at 97.8%. For `C[C@H](N)C(=O)N1C[C@@]2(CCCB3O[C@@H]4C[C@@H]5C[C@@H](C5(C)C)[C@]4(C)O3)CCN[C@@]2(C(=O)O)C1` [Example 18, (3aR,6aR)-5-(L-alanyl)-3a-(3-((3aS,4S,6S,7aR)-3a,5,5-trimethylhexahydro-4,6-methanobenzo[d][1,3,2]dioxaborol-2-yl)propyl)hexahydropyrrolo[3,4-b]pyrrole-6a(1H)-carboxylic acid], the inhibition at 10 µM on Arginase (setting [4]) worked out at 97.9%.

Usually inhibition stands for the relative decrease from the control value, in per cent. As usually defined, the IC50 is the concentration that inhibits the measured activity by half.
